Results: patent US8680076B2, “Methods of treatment, improvement and prevention using haloaryl substituted aminopurines” (Signal Pharmaceuticals, LLC, priority 2010, dated 2014)
Entries after “also recorded” stand apart in the source; their conditions may differ.

Tests used:
[1] = test system: dermal fibroblasts from SSc patients; assay: Expression of extracellular matrix proteins in dermal fibroblasts from SSc patients (real-time PCR, SirCol); type: cell-based, human
Description: Using fibroblasts isolated from skin biopsies from human systemic sclerosis (SSc) patients, an in vitro study was performed to evaluate whether the selective JNK inhibitor Compound JNKi-1 affects the expression of key extracellular matrix proteins.
(§1) Dermal fibroblasts from two SSc patients were treated for 24 hours (hr) with Compound JNKi-1 at concentrations from 0.1 μM to 10 μM (0.5% DMSO/99.5% cell culture media). To study the effect of Compound JNKi-1 on growth factor-induced collagen expression, recombinant transforming growth factor beta (TGF-β) (final concentration of 10 ng/mL) or platelet-derived growth factor-BB (PDGF-BB) (final concentration of 40 ng/mL) were added to cells 2 hr after the addition of JNK-inhibitor Compound JNKi-1 for 24 hr. The expression of collagen proteins was analyzed by SirCol assay. The messenger ribonucleic acid (mRNA) levels of extracellular proteins were measured by real-time polymerase chain reaction (PCR). The β-actin mRNA was used as internal control for the measurement of Collagen 1a1 mRNA using PCR. Fibroblast proliferation assay was performed in the presence or absence of 1 μM Compound JNKi-1 for 24 hr with the (3-(4,5-Dimethylthiazol-2-yl)-2,5-diphenyltetrazolium bromide) (MTT) assay.
The isolation of fibroblasts from human SSc patients and culture conditions used in this study have been previously described (Akhmetshina A, Dees C, Pileckyte M, Maurer B, Axmann R, Jüngel A, et al., Dual inhibition of c-abl and PDGF receptor signaling by dasatinib and nilotinib for the treatment of dermal fibrosis, FASEB J. 2008; 22(7):2214-22). Fibroblast cultures were obtained from skin biopsies of SSc patients. […] Biopsies from SSc patients were taken from involved skin of the forearm. After enzymatic digestion of the skin biopsies with Dispase II, fibroblasts were cultured in DMEM/F-12 containing 10% heat inactivated fetal calf serum (FCS), 100 U/mL penicillin, 100 μg/mL streptomycin, 2 mM L-glutamine and 2.5 μg/mL amphotericin B (all Invitrogen, Karlsruhe, Germany). Fibroblasts from passages 4-8 were used for the experiments. Data are expressed as mean±standard error of the mean (SEM).

[2] = test system: fibroblasts from SSc patients; assay: TGF-β and PDGF-induced total collagen secretion (SirCol assay); type: cell-based, human; conditions: 1 μM
Description: as §1
The isolation of fibroblasts from human SSc patients and culture conditions used in this study have been previously described (Akhmetshina A, Dees C, Pileckyte M, Maurer B, Axmann R, Jüngel A, et al., Dual inhibition of c-abl and PDGF receptor signaling by dasatinib and nilotinib for the treatment of dermal fibrosis, FASEB J. 2008; 22(7):2214-22). […] Data are expressed as mean±standard error of the mean (SEM). […]

CD-IGS rats = assay: Rat model of excisional wound healing; type: in vivo
Description: Male CD-IGS rats (Strain code 001; n=32-52 per experiment) were obtained from Charles River Laboratories at a body weight of 175-195 g. Rats were housed in regular shoebox cages and allowed to become acclimated for a minimum of 1 week. Rats were fed Harlan Teklad (No. 7001) 4% mouse/rat diet and water ad libitum and were maintained on a 12-hour light/dark cycle.
Suspensions of Compound JNKi-1 were prepared in aqueous 0.5% CMC and 0.25% Tween-80. The formulations were homogenized using a TEFLON® pestle and mortar (Potter-Elvehjem tissue grinder). Vehicle (aqueous solution of 0.5% carboxymethylcellulose, and 0.25% Tween-80) and test article compounds were dosed at a volume of 5 mL/kg. Groups of rats (n=4-8/group) were dosed orally with vehicle, Dexamethasone (0.5 mg/kg) or Compound JNKi-1 (10 mg/kg, 30 mg/kg or 60 mg/kg) daily throughout the study starting 4 days prior to the procedure and continuing for up to […]. Compound JNKi-1 treated groups and the respective vehicle control group were dosed twice daily (bid) with an 8 hr separation between the doses. Dexamethasone treated animals and the respective vehicle control group were dosed once daily (qd) for the duration of the study.
Rats were anesthetized by inhaled isoflurane and the dorsal area was shaved and swabbed with 70% alcohol. Two points were marked 5.5 and 8.5 cm from the base of the skull along the midline. Four further points were marked 1 cm at either side of the midline, two at each of the marked points. These delineated the centers of four excisional wounds. The biopsy punch (6 mm diameter) was aligned vertically over the center of a mark and the epidermis, dermis and panniculus carnosus pierced by applying pressure and twisting at the same time. The skin plug was then removed. This was repeated for the remaining wounds (FIG. 15). The animal was then allowed to recover. All animals were housed singly during the experiment. Rats were monitored twice a day for the first 24 hours following the procedure and then daily until the end of the study. Body weights were recorded two or three times per week. Animals were sacrificed via CO2 asphyxiation at various time-points (day 1, 5, 10 or 14) following wounding.
Each wound size was measured using an electronic digital caliper and the percent of wound remaining open was calculated relative to the initial wound size recorded on day 0 (day of wounding procedure). Four values were averaged for each animal (four wounds on each rat). Measurements were taken at different time-points throughout the study.
Wounds and 2 mm of surrounding tissue were excised using an 8 mm biopsy punch. Wounds were harvested on days 1, 5, 10 and 14 following the procedure. Tissues were fixed in neutral buffered formalin for 3 h then transferred to 100% ethanol. Tissues were paraffin-embedded and four μm cross sections were cut and mounted on poly-lysine slides and stored in slide boxes at room temperature.
One slide for each specimen was stained for H&E to assess granulation-tissue formation and re-epithelialization of the wound gap.
Samples collected on day 10 and 14 were stained with Trichrome Stain (Masson) Kit (Sigma, HT15) to evaluate collagen deposition and remodeling.
Tissue sections were deparaffinized and hydrated to deionized (DI) water. Sections were incubated in preheated Bouin' Solution (Sigma, HT10-132) at 56° C. overnight and then thoroughly rinsed in tap water. Sections were stained in Weigert's Iron Hematoxylin solution (Sigma, HT10-79) for 15 min, washed, and counterstained with Biebrich Scarlet Acid Fuchsin solution. After washing, sections were incubated with Phosphotungstic-Phosphomolybdic acid solution for 15 min and then stained with Aniline Blue solution. Sections were dehydrated and cleared in xylene.
Wound healing was evaluated on day 10 and day 14 after the procedure. H&E sections were scored for re-epithelialization using the following criteria: […]

[3] = 1 μM, 24 hr, compared to mock-treated fibroblasts
[4] = 60 mg/kg bid, Studies A and B combined

Question: With O[C@H]1CC[C@H](Nc2ncc3nc(Nc4c(F)cc(F)cc4F)n([C@H]4CCOC4)c3n2)CC1 [JNKi-1, 4-((9-((3S)-tetrahydro-3-furanyl)-8-((2,4,6-trifluorophenyl)amino)-9H-purin-2-yl)amino)-trans-cyclohexanol] as the compound, how does the “expression of extracellular matrix proteins (in words)” value ([1]; 0.1 μM to 10 μM, 24 hr) read?
Answer: reduced expression; also recorded: dose-dependently reduced

Question: And the “reduction of col 1a1 mRNA level” value [1, 3]?
Answer: 71±11%

Question: What about the “reduction of col 1a2 mRNA level” value [1, 3] of the same compound?
Answer: 61±13%

Question: And the “reduction of fibronectin-1 mRNA level” value [1, 3]?
Answer: 55±14%

Question: What about the “reduction of collagen protein in the supernatant” value ([1]; 1 μM, compared to control) of the same compound?
Answer: 21±7%

Question: What about the “concentration at which maximal effects were observed” value ([1]; tested 0.1 μM to 10 μM, 24 hr) of the same compound?
Answer: 1 µM

Question: And the “TGF-β and PDGF-induced collagen secretion” value [2]?
Answer: modestly inhibited

Question: What about the “wound healing (wound size) in words” value (CD-IGS rats; 60 mg/kg b.i.d) of the same compound?
Answer: delay in wound healing was observed

Question: And the “delay in wound healing” value (CD-IGS rats; 60 mg/kg b.i.d, n=3 studies)?
Answer: 27%

Question: And the “healing at day 14” value (CD-IGS rats; 60 mg/kg bid)?
Answer: fully healed

Question: What about the “rats completely healed by day 10 (healing score)” value (CD-IGS rats; [4]) of the same compound?
Answer: 5 out of 14

Question: What about the “rats with both incomplete re-epithelialization and collagen remodeling at day 10” value (CD-IGS rats; [4]) of the same compound?
Answer: 3 rats

Question: And the “rats with incomplete new epidermis at day 10” value (CD-IGS rats; [4])?
Answer: two

Question: What about the “rats with only partial collagen remodeling at day 10” value (CD-IGS rats; [4]) of the same compound?
Answer: 4 rats

Question: And the “neutrophils recruited into the wounds (MPO IHC) versus controls” value (CD-IGS rats; 60 mg/kg, day 1 post wounding)?
Answer: did not affect inflammatory cell infiltration; also recorded: comparable

Question: What about the “myofibroblast migration into the wound gap (α-SMA IHC)” value (CD-IGS rats; 60 mg/kg, day 5 post wounding) of the same compound?
Answer: reduced myofibroblast migration; also recorded: few myofibroblasts migrating at the wound edges

Question: What about the “wound size versus vehicle” value (CD-IGS rats; 30 or 10 mg/kg bid) of the same compound?
Answer: no difference

Question: And the “healing score versus vehicle control, day 10” value (CD-IGS rats; Study C, 10 mg/kg)?
Answer: No significant effect

Question: What about the “rats with both incomplete re-epithelialization and collagen remodeling” value (CD-IGS rats; Study C, 30 mg/kg, day 10) of the same compound?
Answer: 5 out of 8

Question: What about the “rats completely healed by day 10” value (CD-IGS rats; Study C, 60 mg/kg) of the same compound?
Answer: None

Question: What about the “healing score versus vehicle control, day 10” value (CD-IGS rats; Study C, 60 and 30 mg/kg) of the same compound?
Answer: significant delay in healing

Question: What about the “time of complete skin repair post wounding” value (CD-IGS rats; all treated groups) of the same compound?
Answer: ≤ 14 days
